From patent EP4631498A1, “EYE DROP-TYPE PHARMACEUTICAL COMPOSITION CONTAINING ENVOGLIFLOZIN” (Daewoong Therapeutics Inc., priority 2022, dated 2024)
Converted amounts (≈) assume the structure as drawn. Like-named read-outs stand apart in the source and are kept apart here.

Assay: Saturation solubility of enavogliflozin in aqueous excipient solutions (HPLC)
Type: physicochemical
Details: for solubility at 12 h: aqueous excipient solution (excipient in purified water), thermodynamic from solid
Procedure: According to Table 1 below, enavogliflozin in the amount corresponding to each standard solution and 70 mL of methanol were placed in a volumetric flask and then completely dissolved under ultrasonic agitation. Methanol was added thereto to adjust the total volume to 100 mL. The resulting solution was taken and filtered through a 0.45 µm RC (Regenerated Cellulose) membrane filter. The first 2 mL was discarded and then the filtrate was used as a standard solution.
Each excipient was dissolved in 5 mL of purified water at the maximum concentration recommended by the FDA (Table 2) and then enavogliflozin was added thereto until it was no longer dissolved, followed by stirring for approximately 12 hours. After confirming no dissolution after 12 hours, each sample was centrifuged at 4000 rpm for 30 minutes and the clear supernatant (1 mL) was taken and then diluted with methanol. The resulting solution was filtered through a 0.45 µm RC membrane filter. The first 2 mL was discarded and then the filtrate was used as a test solution.
The peak areas of the standard and test solutions were analyzed under the following HPLC conditions. • Detector: UV spectrophotometer (wavelength: 225 nm) • Column: Capcellpak C18 (4.6 x 250 mm, 5 µm) • Column temperature: about 35°C • Sample temperature: about 25°C • Mobile phase: Buffer solution : acetonitrile = 25 : 75 (v/v) (Buffer solution: prepared by dissolving 100 µl of trifluoroacetic acid in 1000 mL of water) • Flow rate: 1.0 mL/min • Injection volume: 10 µL • Analysis time: about 20 minutes
Polyoxyl 40 stearate (Myrj™ S40) was dissolved in 5 mL of purified water at the concentration of 7.0 w/v% and then enavogliflozin was added thereto until it was no longer dissolved, followed by stirring for approximately 12 hours. Thereafter, the degree of solubilization was evaluated in the same manner as in Example 1.

Which “Solubility for unit concentration” value (Aqualon™ CMC 0.50 %w/v) does the source give for `OC[C@H]1O[C@@H](c2cc(Cc3ccc(C4CC4)cc3)c(Cl)c3c2CCO3)[C@H](O)[C@@H](O)[C@@H]1O` [enavogliflozin, Enavogliflozin] here?
Its value is 0.59 mg/%.

What about the “Solubility for unit concentration” value (Cavasol™ W8 1.50 %w/v) of the same molecule?
Its value is 0.72 mg/%.

What about the “Solubility for unit concentration” value (EtOH 0.50 %w/v) of the same molecule?
Its value is 0.51 mg/%.

What about the “Solubility for unit concentration” value (Glycerol 2.25 %w/v) of the same molecule?
Its value is 0.11 mg/%.

What about the “Solubility for unit concentration” value (HPMC 606 0.60 %w/v) of the same molecule?
The value was 0.56 mg/%.

And the “Solubility for unit concentration” value (Kollidon™ K30 15.00 %w/v)?
Its value is 0.24 mg/%.

What about the “Solubility for unit concentration” value (Kollidon™ K90 1.50 %w/v) of the same molecule?
Its value is 0.41 mg/%.

What about the “Solubility for unit concentration” value (Kolliphor™ EL 5.00 %w/v) of the same molecule?
The value was 3.37 mg/%.

And the “Solubility for unit concentration” value (Kolliphor™ HS 15 0.25 %w/v)?
Its value is 4.09 mg/%.

And the “Solubility for unit concentration” value (Kolliphor™ RH 40 1.00 %w/v)?
Its value is 3.64 mg/%.

What about the “Solubility for unit concentration” value (Kollisolv™ PG 1.50 %w/v) of the same molecule?
The value was 0.18 mg/%.

And the “Solubility for unit concentration” value (PEG 400 4.00 %w/v)?
The value was 0.08 mg/%.

And the “Solubility for unit concentration” value (TPGS 0.50 %w/v)?
The value was 4.63 mg/%.

And the “Solubility for unit concentration” value (Tween™ 20 0.05 %w/v)?
The value was 7.21 mg/%.

What about the “Solubility for unit concentration” value (Tween™ 80 4.00 %w/v) of the same molecule?
Its value is 3.95 mg/%.

And the solubility at 12 h (aqueous with cosolvent or surfactant or cyclodextrin, Aqualon™ CMC 0.50 %w/v in purified water, read-out: Saturation solubility)?
Its solubility at 12 h is 300 µg/mL (≈ 671 µM).

What about the solubility at 12 h (aqueous with cosolvent or surfactant or cyclodextrin, Cavasol™ W8 1.50 %w/v in purified water, read-out: Saturation solubility) of the same molecule?
Its solubility at 12 h is 1090 µg/mL (≈ 2440 µM).

What about the solubility at 12 h (aqueous with cosolvent or surfactant or cyclodextrin, HPMC 606 0.60 %w/v in purified water, read-out: Saturation solubility) of the same molecule?
Its solubility at 12 h is 330 µg/mL (≈ 738 µM).

And the solubility at 12 h (aqueous with cosolvent or surfactant or cyclodextrin, Kollidon™ K30 15.00 %w/v in purified water, read-out: Saturation solubility)?
Its solubility at 12 h is 3600 µg/mL (≈ 8060 µM).

What about the solubility at 12 h (aqueous with cosolvent or surfactant or cyclodextrin, Kollidon™ K90 1.50 %w/v in purified water, read-out: Saturation solubility) of the same molecule?
The solubility at 12 h was 620 µg/mL (≈ 1390 µM).

And the solubility at 12 h (aqueous with cosolvent or surfactant or cyclodextrin, Kolliphor™ EL 5.00 %w/v in purified water, read-out: Saturation solubility)?
The solubility at 12 h was 16800 µg/mL (≈ 37700 µM).

And the solubility at 12 h (aqueous with cosolvent or surfactant or cyclodextrin, Kolliphor™ EL 5.0 w/v% in purified water, read-out: Saturation solubility of enavogliflozin)?
The solubility at 12 h was 16800 µg/mL (≈ 37700 µM).

And the solubility at 12 h (aqueous with cosolvent or surfactant or cyclodextrin, Kolliphor™ HS 15 0.25 %w/v in purified water, read-out: Saturation solubility)?
The solubility at 12 h was 1020 µg/mL (≈ 2280 µM).

What about the solubility at 12 h (aqueous with cosolvent or surfactant or cyclodextrin, Kolliphor™ RH 40 1.00 %w/v in purified water, read-out: Saturation solubility) of the same molecule?
Its solubility at 12 h is 3640 µg/mL (≈ 8140 µM).

What about the solubility at 12 h (aqueous with cosolvent or surfactant or cyclodextrin, Polyoxyl 40 stearate 7.0 w/v% in purified water, read-out: Saturation solubility of enavogliflozin) of the same molecule?
Its solubility at 12 h is 32000 µg/mL (≈ 71600 µM).

What about the solubility at 12 h (aqueous with cosolvent or surfactant or cyclodextrin, TPGS 0.50 %w/v in purified water, read-out: Saturation solubility) of the same molecule?
Its solubility at 12 h is 2310 µg/mL (≈ 5170 µM).

And the solubility at 12 h (aqueous with cosolvent or surfactant or cyclodextrin, Tween™ 20 0.05 %w/v in purified water, read-out: Saturation solubility)?
Its solubility at 12 h is 360 µg/mL (≈ 806 µM).

And the solubility at 12 h (aqueous with cosolvent or surfactant or cyclodextrin, Tween™ 80 4.00 %w/v in purified water, read-out: Saturation solubility)?
Its solubility at 12 h is 15800 µg/mL (≈ 35400 µM).

And the solubility at 12 h (water, EtOH 0.50 %w/v in purified water, read-out: Saturation solubility)?
The solubility at 12 h was 260 µg/mL (≈ 582 µM).

And the solubility at 12 h (water, Glycerol 2.25 %w/v in purified water, read-out: Saturation solubility)?
The solubility at 12 h was 240 µg/mL (≈ 537 µM).

What about the solubility at 12 h (water, Kollisolv™ PG 1.50 %w/v in purified water, read-out: Saturation solubility) of the same molecule?
The solubility at 12 h was 270 µg/mL (≈ 604 µM).

And the solubility at 12 h (water, PEG 400 4.00 %w/v in purified water, read-out: Saturation solubility)?
Its solubility at 12 h is 330 µg/mL (≈ 738 µM).
